Results: US12552800B2, “Compounds for diagnosis” (AC IMMUNE SA, priority 2020, dated 2026)

Target: T1, PD brain-derived a-syn aggregates (Homo sapiens, UniProt P37840)
T1 construct: from tissue; host or cells: human PD donor brain, sarkosyl-insoluble 100,000 x g pellet
Assay: Micro-radiobinding competition assay against Example-1 [^3H-1] (Table 8)
Format: binding
Details: human PD brain-derived a-syn aggregates; for Competition at 100 nM (%): 100 nM non-radiolabelled example compound vs Example-1 [^3H-1] ligand; for Competition at 1 μM (%): 1 μM non-radiolabelled example compound vs Example-1 [^3H-1] ligand
Procedure: PD brain-derived a-syn aggregates were spotted onto microarray slides. The slides were incubated with the Example-1 [^3H-1] at 6 nM or 20 nM and the example compounds (non-radiolabelled) at 1 μM and 100 nM. In some cases, the non-radiolabelled example compounds were further assessed for a range of different concentrations, varying from 0.05 nM to 2 μM. After incubation, slides were washed and scanned by a real-time autoradiography system (BeaQuant, ai4R). Quantification of the signal was performed by using the Beamage image analysis software (ai4R). […] All measurements were performed with at least two technical replicates. For compounds tested in more than one experiment, the mean of the replicates or K; values in independent experiments is reported.
Results: Example compounds were assessed for their potency to compete with the binding of Example-1 [^3H-1] ligand to PD patient brain-derived a-syn aggregates. Results of the micro-radiobinding competition assay for the example compounds tested are shown in Table 8 as: % competition at 1 μM and 100 nM.

Row | SMILES | Competition at 100 nM (%) | Competition at 1 μM (%)
1 | Cc1ccnc(N2Cc3nn(-c4ccc(N5CC[C@H](F)C5)nc4)cc3C2=O)c1 [Example 82] | 84 | –
2 | Cc1c2c(nn1-c1ccc(N3CC[C@@H](F)C3)nc1)CN(c1cnn(C)c1)C2=O [Example 96] | 24 | 39
3 | Cc1c2c(nn1-c1ccc(N3CC[C@H](F)C3)nc1)CN(c1ccccn1)C2=O [Example 73] | 33 | 66
4 | N#Cc1cc(N2Cc3nn(-c4ccc(N5CC[C@@H](F)C5)nc4)cc3C2=O)ccn1 [Example 114] | 92 | 99
5 | O=C1c2cn(-c3ccc(N4CC[C@H](F)C4)cn3)nc2CN1c1cccnc1 [Example 72] | 45 | 79
6 | Cc1cccc(N2Cc3nn(-c4ccc(N5CC[C@H](F)C5)nc4)cc3C2=O)n1 [Example 83] | 47 | –
7 | O=C1c2cn(-c3ccc(N4CC[C@H](F)C4)nc3)nc2CN1c1cccc(F)c1 [Example 70] | 65 | –
8 | N#Cc1ccc(N2Cc3nn(-c4ccc(N5CC[C@H](F)C5)nc4)cc3C2=O)cc1N [Example 21] | – | 84
9 | O=C1c2cn(-c3ccc(N4CCCC4)nc3)nc2CN1c1cnn(CCF)c1 [Example 129] | 25 | 74
10 | O=C1c2cn(-c3ccc(N4CC[C@H](F)C4)nc3)nc2CN1c1ccncc1O [Example 173] | 12 | 54
11 | O=C1c2cn(-c3ccc(N4CC[C@H](F)C4)nc3)nc2CN1c1cccnc1O [Example 168] | 30 | 36
12 | O=C1c2cn(-c3ccc(N4CC[C@@H](F)C4)nc3)nc2CN1c1cccc(F)c1 [Example 68] | 63 | –
13 | Cn1cc(-n2cc3c(n2)CN(c2cccc(F)n2)C3=O)cn1 [Example 150] | 37 | 46
14 | Nc1cc(N2Cc3nn(-c4ccc(N5CCCC5)nc4)cc3C2=O)ccc1F [Example 44] | 90 | –
15 | O=C1c2cn(-c3ccc(N4CCOCC4)nc3)nc2CN1c1cncc(F)n1 [Example 141] | 51 | 66
16 | O=C1c2cn(-c3ccc(F)cn3)nc2CN1c1cccnc1 [Example 138] | 32 | 57
17 | N#Cc1cc(N2Cc3nn(-c4ccc(N5CC[C@H](F)C5)nc4)cc3C2=O)ccn1 [Example 111] | 82 | 97
18 | O=C1c2cn(-c3ccc(N4CCCC4)nc3)nc2CN1c1cnccc1F [Example 47] | 39 | –
19 | COc1cccc(N2Cc3nn(-c4ccc(N5CC[C@@H](F)C5)nc4)cc3C2=O)c1 [Example 34] | 80 | 89
20 | COc1ccnc(N2Cc3nn(-c4ccc(N5CC[C@H](F)C5)nc4)cc3C2=O)c1 [Example 77] | 95 | 94
21 | O=C1c2cn(-c3ccc(N4CC[C@H](F)C4)nc3)nc2CN1c1nccs1 [Example 136] | 75 | –
22 | Cc1ccc(N2Cc3nn(-c4ccc(N5CC[C@@H](F)C5)nc4)cc3C2=O)cc1 [Example 60] | 70 | 71
23 | CC(C)n1cc(N2Cc3nn(-c4ccc(N5CC[C@H](F)C5)nc4)cc3C2=O)cn1 [Example 119] | 12 | 51
24 | O=C1c2cn(-c3ccc(N4CC[C@@H](F)C4)nc3)nc2CN1c1cccc(O)n1 [Example 164] | 44 | 87
25 | COc1cccc(N2Cc3nn(-c4ccc(N5CC[C@H](F)C5)nc4)cc3C2=O)n1 [Example 78] | 60 | –
26 | N#Cc1cccc(N2Cc3nn(-c4ccc(N5CC[C@@H](F)C5)nc4)cc3C2=O)n1 [Example 79] | 74 | –

Row | SMILES | Competition at 100 nM (%) | Competition at 1 μM (%)
27 | COc1ccccc1N1Cc2nn(-c3ccc(N4CC[C@H](F)C4)nc3)cc2C1=O [Example 37] | 37 | –
28 | O=C1c2cn(-c3ccc(N4CC[C@@H](F)C4)nc3)nc2CN1c1ccccc1O [Example 175] | 32 | 65
29 | O=C1c2cn(-c3ccc(N4CCCC4)nc3)nc2CN1c1cc(F)ccn1 [Example 100] | 78 | –
30 | O=C1c2cn(-c3ccc(C4CCCC4)nc3)nc2CN1c1cncc(F)n1 [Example 161] | 42 | 65
31 | O=C1c2cn(-c3ccc(N4CC[C@H](F)C4)nc3)nc2CN1c1cncc(F)c1 [Example 92] | 32 | 73
32 | O=C1c2cn(-c3ccc(N4CC[C@H](F)C4)nc3)nc2CN1c1ccnc(O)c1 [Example 172] | 44 | 85
33 | O=C1c2cn(-c3ccc(N4CC[C@@H](F)C4)nc3)nc2CN1c1ccccc1 [Example 51] | 80 | 100
34 | Cc1ncccc1N1Cc2nn(-c3ccc(N4CC[C@@H](F)C4)nc3)cc2C1=O [Example 12] | – | 25
35 | O=C1c2cn(-c3ccc(N4CC[C@@H](F)C4)nc3)nc2CN1c1ccccc1F [Example 69] | 16 | 48
36 | COc1ccc(N2Cc3nn(-c4ccc(N5CC[C@@H](F)C5)nc4)cc3C2=O)cn1 [Example 8] | 67 | 91
37 | Cc1cc(N2Cc3nn(-c4ccc(N5CC[C@H](F)C5)nc4)cc3C2=O)ccn1 [Example 104] | 86 | 98
38 | Cc1c2c(nn1-c1ccc(N3CC[C@@H](F)C3)nc1)CN(c1cccnc1)C2=O [Example 52] | 26 | 29
39 | N#Cc1ccnc(N2Cc3nn(-c4ccc(N5CC[C@@H](F)C5)nc4)cc3C2=O)c1 [Example 86] | 64 | –
40 | N#Cc1cccc(N2Cc3nn(-c4ccc(N5CC[C@@H](F)C5)nc4)cc3C2=O)c1 [Example 67] | 71 | –
41 | O=C1c2cn(-c3ccc(N4CC[C@@H](F)C4)nc3)nc2CN1c1ccncc1O [Example 174] | 46 | 64
42 | O=C1c2cn(-c3ccc(N4CC[C@H](F)C4)nc3)nc2CN1c1cncnc1 [Example 16] | 32 | 70
43 | COc1ccc(-n2cc3c(n2)CN(c2cccc(F)n2)C3=O)cn1 [Example 159] | 46 | 67
44 | O=C1c2cn(-c3ccc(N4CC[C@H](F)C4)nc3)nc2CN1c1cc(O)ccn1 [Example 170] | 65 | 102
45 | Cc1cnccc1N1Cc2nn(-c3ccc(N4CC[C@H](F)C4)nc3)cc2C1=O [Example 123] | 32 | 58
46 | COc1cc(N2Cc3nn(-c4ccc(N5CC[C@@H](F)C5)nc4)cc3C2=O)ccn1 [Example 107] | 92 | 100
47 | N#Cc1cncc(N2Cc3nn(-c4ccc(N5CC[C@@H](F)C5)nc4)cc3C2=O)c1 [Example 109] | 67 | –
48 | Cc1c2c(nn1-c1ccc(N3CC[C@H](F)C3)nc1)CN(c1cccnc1)C2=O [Example 53] | 27 | 54
49 | Cc1ncccc1N1Cc2nn(-c3ccc(N4CC[C@H](F)C4)nc3)cc2C1=O [Example 13] | 4 | 31
50 | O=C1c2cn(-c3ccc(N4CC[C@H](F)C4)nc3)nc2CN1c1ccccc1O [Example 176] | 13 | 54
51 | O=C1c2cn(-c3ccc(C4CCCC4)nc3)nc2CN1c1cccc(F)n1 [Example 154] | 81 | 99
52 | Cc1ccc(N2Cc3nn(-c4ccc(N5CC[C@H](F)C5)nc4)cc3C2=O)nc1 [Example 112] | 85 | 105
